Results published in patent US8394408B2, “Gastric retentive extended-release dosage forms comprising combinations of a non-opioid analgesic and an opioid analgesic” (Depomed, Inc., priority 2008, dated 2013).

Tests used:
[1] = cited from earlier work
[2] = Oxycodone degradation (DHOXY/OXY), effect of binder, 40° C., 75% RH open dish 8 days; format: physicochemical

| SMILES | Solubility in water [1] | DHOXY/OXY (%), Physical Blend ([2]; 40° C., 75% RH, open-dish 8 days) | DHOXY/OXY (%), Physical Blend ([2]; t = 0) |
| --- | --- | --- | --- |
| COc1ccc2c3c1O[C@H]1C(=O)CC[C@H]4[C@@H](C2)N(C)CC[C@]314.O=C(O)C(O)C(O)C(=O)O [hydrocodone bitartrate] | 62.5 mg/mL | – | – |
| COc1ccc2c3c1O[C@H]1C(=O)CC[C@@]4(O)[C@@H](C2)N(C)CC[C@]314.Cl [oxycodone HCl] | – | 0.07% | 0.07% |
